Measurements as given in patent publication US10233157B2, “SIK inhibitor for use in a method of treating an inflammatory and/or immune disorder” (Dana-Farber Cancer Institute, Inc., priority 2012, dated 2019).
Where two headings read alike, the source gives them in different places.

Legend:
RAW264.7 macrophages = assay: IL-10 mRNA in RAW264.7 cells with shRNA knockdown of SIKs; type: cell-based; conditions: for IC50: Mus musculus, RAW264.7, 1 h
Procedure: . (FIG. 16A) mRNA abundance of SIK1, SIK2 and SIK3 in RAW264.7 macrophages. Gene expression was measured by qPCR. The number of copies of each SIK mRNA was normalized to GAPDH. (mean±SD, n=3). (FIG. 16B) The efficiency of SIK knock-down. RAW264.7 cells were transduced with lentiviral vectors encoding a control shRNA or shRNAs targetting SIK1, SIK2 and SIK3. The expression of SIK1, SIK2 and SIK3 was measured by qPCR and normalized to that of control cells using GAPDH (mean±SD, n=3). […]. The levels of IL-10 mRNA were measured by qPCR and normalized using GAPDH. Data are presented with the highest level of expression set to 1 (mean±SD, n=3). […] (FIG. 16D) Increased IL-10 expression in cells with decreased SIK expression. […].
RNAi in Macrophages RAW264.7 cells or BMDMs were transfected with 100 pmol of SMARTpool siRNA oligos against CREB, CRTC1, CRTC2, CRTC3 or a non-targetting control (Dharmacon) using AMAXA nucleofection. Cells were cultured for 24 h prior to incubation with inhibitors for 1 h followed by stimulation for 1 h with 100 ng/ml LPS. Gene expression was measured by real-time quantitative PCR. For shRNA knockdown of SIKs, lentivirus was generated according to the manufacturer's instructions (Sigma) and RAW264.7 cells were infected using virus harvested 48 and 72 h post-transfection. Infected cells were selected using 3 μg/ml puromycin. QPCR

CREB luciferase reporter = CREB luciferase reporter assay in HEK293 cells; type: cell-based; conditions: HEK293, 2 μM MRT67307, 10 μM forskolin 2 h
Procedure: FIG. 5. […] HEK293 cells were co-transfected with DNA encoding a CREB luciferase reporter construct and pTK-RL. […] Luciferase activity was measured with a dual luciferase assay system (Promega) and was normalized to Renilla luciferase activity (n=3, mean±SEM).
HEK293 cells were co-transfected with DNA encoding FLAG-CRTC3 or phosphomutants along with a CREB firefly luciferase reporter construct (pCRE-luc from Stratagene) and pTK-RL which encodes renilla luciferase under the control of a constitutive promoter. At 24 h post-transfection, cells were treated with or without 10 μM KIN112 for a further 24 h. Firefly luciferase activity was measured with a dual luciferase assay system (Promega) and was normalized to Renilla luciferase activity.

[1] = test system: TLR-stimulated macrophages; assay: qPCR of CREB-dependent gene mRNA in TLR-stimulated macrophages; type: cell-based, mouse
Procedure: Bone-marrow derived macrophages were differentiated for 7 days in DMEM supplemented with 5 ng/ml recombinant M-CSF (R&D systems), 2 mM glutamine, 10% foetal calf serum, penicillin and streptomycin. […]
mRNA was extracted from macrophages using the RNeasy Micro Kit following the manufacturers' instructions (Qiagen). cDNA was generated from 1 μg of total RNA using the iScript cDNA synthesis kit and quantified by qPCR using the SsoFast EvaGreen Supermix on a CFX96 real time system (Bio-Rad Laboratories). The relative expression of each gene was calculated from Ct values using the Pfaffl method^30 and was normalized against the mRNA levels of 18S RNA. The following primers were used: IL-10-F, […]; IL-10-R, […]; c-Fos-F, […]; c-Fos-R, […]; nurr1-F, […]; nurr1-R, […]; nurr77-F, […]; nurr77-R, […]; 18S-F, […]; 18S-R, […]; IL-1ra-F, […]; IL-1ra-R, […]; SPHK1-F, […]; SPHK1-R, […]; LIGHT-F, […]; LIGHT-R, […]; ArgI-F, […]; ArgI-R, […]; IFN-F, […]; IFNγ-R, […].
[…]. Biochem J 434:93-104) using the indicated antibodies. RNA was extracted using the RNeasy Micro Kit (Qiagen). cDNA was generated using the iScript cDNA synthesis kit and quantified by qPCR using the SsoFast EvaGreen Supermix (Bio-Rad Laboratories). The relative expression of each gene was calculated from Ct values using the Pfaffl method (Pfaffl M W (2001) A new mathematical model for relative quantification in real-time RT-PCR. Nucleic Acids Res 29:e45) and was normalized against the mRNA levels of 18S or GAPDH RNA. Fold-induction for each gene was reported relative to untreated control cells, which was set to 1. The concentrations of TNFα, IL-6, IL-10, IL-12p40, and RANTES in culture supernatants were measured using the Bio-Plex Pro Assay system from Bio-Rad. Further details in supplementary information.
mRNA was extracted from cells using the RNeasy Micro Kit following the manufacturers' instructions (Qiagen). cDNA was generated from 1 μg of total RNA using the iScript cDNA synthesis kit and quantified by qPCR using the SsoFast EvaGreen Supermix on a CFX96 real time system (Bio-Rad Laboratories). The relative expression of each gene was calculated from Ct values using the Pfaffl method (5) and was normalized against the mRNA levels of 18S RNA or GAPDH. Results are reported relative to untreated control cells, which was set to 1. The following primers were used: […]

STAT3 = assay: Immunoblotting of STAT3 phosphorylation in LPS-stimulated macrophages; type: cell-based, mouse
Procedure: FIGS. 2A to 2G. […] As in A except that cells were stimulated for 2 h with LPS.
Bone-marrow derived macrophages were differentiated for 7 days in DMEM supplemented with 5 ng/ml recombinant M-CSF (R&D systems), 2 mM glutamine, 10% foetal calf serum, penicillin and streptomycin.
Cells were rinsed in ice-cold PBS and extracted in lysis buffer (50 mM Tris/HCl pH 7.4, 1 mM EDTA, 1 mM EGTA, 50 mM NaF, 5 mM sodium pyrophosphate, 10 mM sodium α-glycerol 1-phosphate, 1 mM dithiothreitol, 1 mM sodium orthovanadate, 0.27 M sucrose, 1% (v/v) Triton X-100, 1 μg/ml aprotinin, 1 μg/ml leupeptin and 1 mM phenylmethylsulphonyl fluoride). Cell extracts were clarified by centrifugation at 14000×g for 10 min at 4° C. and protein concentrations determined using the Bradford assay. To detect proteins in cell lysates, 20 μg of protein extract was separated by SDS-PAGE. After transfer to PVDF membranes, proteins were detected by immunoblotting and visualized by treating the blots with ECL (Amersham) followed by autoradiography. The antibody recognizing CREB phosphorylated at Ser133 was from Cell Signalling Technology and the one detecting α-tubulin was obtained from Sigma.

[2] = test system: Brain-Specific Kinases (BRSKs); assay: Kinase assays, BRSKs; type: biochemical; conditions: in vitro
Procedure: FLAG-CRTC3 was immunoprecipitated using anti-FLAG M2 agarose, washed in kinase buffer (50 mM Tris/HCl pH 7.4, 10 mM Mg acetate, 0.1 mM EGTA, 2 mM DTT) and reactions initiated by adding 4 U/ml recombinant kinase with 0.1 mM ATP (specific activity 3000 cpm/pmol). Phosphorylation of CRTC3 was monitored by autoradiography as well as immunoblotting using phosphospecific antibodies raised against Ser162, Ser329 and Ser370.

[3] = LPS-stimulated macrophages with MRT67307

COc1ccc(N(C(=O)Nc2c(C)cccc2C)c2cc(Nc3ccc(N4CCN(C)CC4)cc3)ncn2)c(OC)c1 [HG-9-91-01, 1-(2,4-dimethoxyphenyl)-3-(2,6-dimethylphenyl)-1-(6-((4-(4-methylpiperazin-1-yl)phenyl)amino)pyrimidin-4-yl)urea]
IC50 (RAW264.7 macrophages; read-out: IC50 for stimulation of IL-10 mRNA, SIK1/2/3 shRNA cells, 1 μg/ml Pam3CSK4 1 h): 150 ± 20 nM
IC50 (RAW264.7 macrophages; read-out: IC50 for stimulation of IL-10 mRNA, control shRNA cells, 1 μg/ml Pam3CSK4 1 h): 260 ± 10 nM
IL-10 mRNA expression in SIK-depleted versus wild-type macrophages (RAW264.7 macrophages; suboptimal concentration (100 nM)): 4 fold

O=C(NCCCNc1nc(Nc2cccc(CN3CCOCC3)c2)ncc1C1CC1)C1CCC1 [MRT67307]
CREB-dependent luciferase transcription (CREB luciferase reporter): increases
time at which IL-10 mRNA levels reach a maximum [1, 3]: 1 h
time at which IL-10 mRNA returns to near basal levels [1, 3]: 4 h
mRNA of CREB-dependent genes c-fos, nurr1 and nurr77 ([1]; TLR-stimulated macrophages): increase
IL-10 mRNA ([1]; TLR/LPS-stimulated macrophages): dramatically increased
LPS-stimulated phosphorylation of STAT3 (STAT3; 2 μM MRT67307): increased
phosphorylation of STAT3 (STAT3; LPS-stimulated macrophages from IL-10−/− mice, presence or absence of compound): no phosphorylation of STAT3 occurred
inhibition of BRSKs [2]: did not inhibit
